Experimental data as given in PubChem BioAssay (NCI).
Where “and” joins values, the source holds several entries; their conditions need not be identical. Equal values may be shown once.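 A five-concentration, 48-hour dose response in 96-well plates underlies each endpoint, interpolated linearly between surrounding concentrations. The concentration for 50% growth inhibition is given as GI50. At the TGI there is no net growth.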

system: UO-31 renal; test: inhibition of tumour cell growth, NCI panel, 48 h

| Compound | GI50 [µM] | TGI [µM] |
| --- | --- | --- |
| CCCCC(CC)COC(=O)C[N+](C)(C)CCOC(c1ccccc1)c1ccccc1 (stereo unspecified) | 12.4 | 27.3 |
| CCOC(=O)/C(C)=C(/O)C(=O)OCC |  | > 100 |
| CCCCNC1CCCCC[C@H]1O (stereo partly specified) |  | > 100 |
| COc1cc(/C=C/c2ccc(OC)c(O)c2)cc(OC)c1 |  | 41.9 |
| COc1ccc(C(=O)c2cc(C)c(OC)c(C)c2)cc1OC(=O)CCl |  | > 100 |
| O=C(Nc1ccccc1-c1nc2ccccc2[nH]c1=O)c1ccccc1 |  | 38.3 |
| CC1=[N+]([O-])c2ccccc2C(=O)C1=O |  | > 100 |
| NC(=O)c1cc(Cl)ccc1NC(=O)/C=C/c1ccccc1 | 10.1 | > 100 |
| CC12OC(C(=O)C13CC3)C1C(=O)c3ccc4c(ccc5ccccc54)c3C(=O)C12 (stereo unspecified) | 77.3 | > 100 |
| CNC(=S)/N=C(\N)N(C)C |  | > 100 |
| CC(=O)C1Cn2c(nc3ccccc32)C[Se]1 (stereo unspecified) |  | 8.46 |
| COc1cc(Cc2nccc3cc(OC)c(OC)cc23)c(C(C)=O)cc1OC | > 750 | > 750 |
| Nc1ccccc1C#C/C=C\C#Cc1ccccc1N | 11.4 | 34.1 |
| CN(C)CCC1(C2=CCCC2)CC/C(=C\c2ccc(Cl)cc2)C1=O (stereo unspecified) |  | 18.8 |
| CC1=CC(C)(C)N=C2SC(c3ccc(N)cc3)=NN12 |  | > 100 |
| c1cnn(CN(Cn2cccn2)Cn2cccn2)c1 |  | > 100 |
| O=C1C2C3C=C4c5ccccc5N(c5ccccc5)C4(C2C(=O)N1c1ccc([N+](=O)[O-])cc1)[C@H]1C(=O)N(c2ccc([N+](=O)[O-])cc2)C(=O)[C@@H]31 (stereo partly specified) |  | > 100 |

system: RPMI-8226 leukemia; test: inhibition of tumour cell growth, NCI panel, 48 h

| Compound | GI50 [nM] | TGI |
| --- | --- | --- |
| CC1(C)C(=O)/C(=C\c2cccnc2)C[C@]2(C)[C@H]3CC[C@@H]4[C@H]5[C@H](C(=O)/C=C/c6cccnc6)CC[C@]5(C(=O)O)CC[C@@]4(C)[C@]3(C)CC[C@@H]12 | 1880 | 7.28 µM |
| COc1cc2ncnc(-n3ncc4cc(NC(=O)Nc5ccccc5)ccc43)c2cc1OC | 934 | 12 µM |
| COc1ccc(C(=O)c2cc(OC)c(OC)c(OC)c2)cc1/C=C/C(=O)c1ccc(F)cc1 | 2320 | 6.98 µM |
| OCC1OC(n2cnc3c2NC=NC[C@H]3O)C(Cl)C1O (stereo partly specified) |  | > 100 µM |
| COc1ccc(C2=C(Cl)c3cc(OC)c(OC)cc3C2Cl)cc1 (stereo unspecified) |  | > 66.3 µM |
| COc1ccc(-c2[nH]c3ccc(OC)cc3c2/C=C(\C#N)S(=O)(=O)c2ccccc2)cc1 | 1280 | 6.64 µM |
| O=c1cc(NCC(O)CN2CCCC2)n(Cc2ccccc2)c(=O)n1Cc1ccccc1 (stereo unspecified) | 22600 | 46.5 µM |
| c1ccc(Sc2ccc(Cc3nc4cc5ccccc5cc4[nH]3)cc2)cc1 | 3770 | 49.7 µM |
| CCc1nc2cc(F)c(/C=C/C(=O)NO)cc2c(=O)n1CCc1ccccc1 | 387 | 19.9 µM |
| COc1cc2c(cc1OCCCCC(=O)Nc1cc3c4ccccc4ccc3c3ccccc13)N=C[C@@H]1CCCN1C2=O | 1110 |  |
| C=C1C(=O)O[C@H]2[C@H]1CC/C(COC(=O)NCCCCNC(=O)OC/C1=C/CC[C@@]3(C)O[C@H]3[C@H]3OC(=O)C(=C)[C@@H]3CC1)=C\CC[C@@]1(C)O[C@@H]21 | 547 | 3.08 µM |
| COc1ccc(-c2cc(-c3cc(C)cc(Br)c3O)no2)cc1 |  | > 100 µM |
| COc1ccc(-c2nc3ccccn3c2/C=C/C(=O)c2cc(OC)c(OC)c(OC)c2)cc1OC | 398 | 2.51 µM |
| COc1cc2c3c(n(CCCN)c(=O)c2cc1OC)-c1ccc(C#N)cc1C3=O | 19100 | 41.5 µM |
| O=C(Nc1cc(Cl)c(Cl)cc1Cl)C(=O)C1C(=O)NC(=S)NC1=O |  | > 100 µM |
| CCOC(=O)/C(C)=C(/O)C(=O)OCC |  | > 100 µM |
| CCCCNC1CCCCC[C@H]1O (stereo partly specified) |  | > 100 µM |
| COc1cc(/C=C/c2ccc(OC)c(O)c2)cc(OC)c1 |  | 9.92 µM |
| COc1ccc(C(=O)c2cc(C)c(OC)c(C)c2)cc1OC(=O)CCl | < 10 | 25.3 µM |
| O=C(Nc1ccccc1-c1nc2ccccc2[nH]c1=O)c1ccccc1 |  | 44.9 µM |
| CC1=[N+]([O-])c2ccccc2C(=O)C1=O |  | > 100 µM |
| NC(=O)c1cc(Cl)ccc1NC(=O)/C=C/c1ccccc1 | 2860 | > 100 µM |
| CNC(=S)/N=C(\N)N(C)C |  | > 100 µM |
| CC(=O)C1Cn2c(nc3ccccc32)C[Se]1 (stereo unspecified) |  | 62.9 µM |
| COc1cc(Cc2nccc3cc(OC)c(OC)cc23)c(C(C)=O)cc1OC |  | 265 µM and > 750 µM |
| CN(C)CCC1(C2=CCCC2)CC/C(=C\c2ccc(Cl)cc2)C1=O (stereo unspecified) |  | 22.4 µM |
| CC1=CC(C)(C)N=C2SC(c3ccc(N)cc3)=NN12 |  | > 66.3 µM |
| c1cnn(CN(Cn2cccn2)Cn2cccn2)c1 |  | > 100 µM |
| O=C1C2C3C=C4c5ccccc5N(c5ccccc5)C4(C2C(=O)N1c1ccc([N+](=O)[O-])cc1)[C@H]1C(=O)N(c2ccc([N+](=O)[O-])cc2)C(=O)[C@@H]31 (stereo partly specified) |  | > 100 µM |

system: PC-3 prostate; test: inhibition of tumour cell growth, NCI panel, 48 h

| Compound | GI50 [µM] | TGI [µM] |
| --- | --- | --- |
| CC1(C)C(=O)/C(=C\c2cccnc2)C[C@]2(C)[C@H]3CC[C@@H]4[C@H]5[C@H](C(=O)/C=C/c6cccnc6)CC[C@]5(C(=O)O)CC[C@@]4(C)[C@]3(C)CC[C@@H]12 | 2.41 | 8.58 |
| COc1cc2ncnc(-n3ncc4cc(NC(=O)Nc5ccccc5)ccc43)c2cc1OC | 1.09 | 3.36 |
| COc1ccc(C(=O)c2cc(OC)c(OC)c(OC)c2)cc1/C=C/C(=O)c1ccc(F)cc1 | 3.3 | 13.7 |
| OCC1OC(n2cnc3c2NC=NC[C@H]3O)C(Cl)C1O (stereo partly specified) |  | > 100 |
| COc1ccc(C2=C(Cl)c3cc(OC)c(OC)cc3C2Cl)cc1 (stereo unspecified) |  | 26.3 |
| COc1ccc(-c2[nH]c3ccc(OC)cc3c2/C=C(\C#N)S(=O)(=O)c2ccccc2)cc1 | 0.533 | 23.6 |
| O=c1cc(NCC(O)CN2CCCC2)n(Cc2ccccc2)c(=O)n1Cc1ccccc1 (stereo unspecified) | 26.9 | 84.1 |
| c1ccc(Sc2ccc(Cc3nc4cc5ccccc5cc4[nH]3)cc2)cc1 | 4.56 | > 64.3 |
| CCc1nc2cc(F)c(/C=C/C(=O)NO)cc2c(=O)n1CCc1ccccc1 | 0.526 | 59.4 |
| CC1=C(/C=C/Cl)CC(Cl)C(C)(Cl)C1 (stereo unspecified) |  | > 100 |
| COc1cc2c(cc1OCCCCC(=O)Nc1cc3c4ccccc4ccc3c3ccccc13)N=C[C@@H]1CCCN1C2=O | 5.4 | > 65.9 |
| C=C1C(=O)O[C@H]2[C@H]1CC/C(COC(=O)NCCCCNC(=O)OC/C1=C/CC[C@@]3(C)O[C@H]3[C@H]3OC(=O)C(=C)[C@@H]3CC1)=C\CC[C@@]1(C)O[C@@H]21 | 2.55 | 8.05 |
| COc1ccc(-c2cc(-c3cc(C)cc(Br)c3O)no2)cc1 |  | 33.5 |
| COc1ccc(-c2nc3ccccn3c2/C=C/C(=O)c2cc(OC)c(OC)c(OC)c2)cc1OC | 3.71 | > 100 |
| COc1cc2c3c(n(CCCN)c(=O)c2cc1OC)-c1ccc(C#N)cc1C3=O | 15 | 36.5 |
| CCCCC(CC)COC(=O)C[N+](C)(C)CCOC(c1ccccc1)c1ccccc1 (stereo unspecified) | 3.21 | 11.7 |
| Cc1cc(NC(=S)SCc2ccc(F)cc2)c([N+](=O)[O-])cc1C |  | > 100 |
| COc1ccc(C(=O)c2cc(C)c(OC)c(C)c2)cc1OC(=O)CCl | < 0.021 | > 100 |
| NC(=O)c1cc(Cl)ccc1NC(=O)/C=C/c1ccccc1 | 3.2 | > 100 |
| CC12OC(C(=O)C13CC3)C1C(=O)c3ccc4c(ccc5ccccc54)c3C(=O)C12 (stereo unspecified) | 19 | 80.7 |
| Nc1ccccc1C#C/C=C\C#Cc1ccccc1N | 7.39 | 29.1 |

system: RXF 393 renal; test: inhibition of tumour cell growth, NCI panel, 48 h

| Compound | GI50 [µM] | TGI [µM] |
| --- | --- | --- |
| CC1(C)C(=O)/C(=C\c2cccnc2)C[C@]2(C)[C@H]3CC[C@@H]4[C@H]5[C@H](C(=O)/C=C/c6cccnc6)CC[C@]5(C(=O)O)CC[C@@]4(C)[C@]3(C)CC[C@@H]12 | 1.67 | 3.1 |
| COc1cc2ncnc(-n3ncc4cc(NC(=O)Nc5ccccc5)ccc43)c2cc1OC | 1.04 | 2.76 |
| COc1ccc(C(=O)c2cc(OC)c(OC)c(OC)c2)cc1/C=C/C(=O)c1ccc(F)cc1 | 7.29 | 23.3 |
| COc1ccc(C2=C(Cl)c3cc(OC)c(OC)cc3C2Cl)cc1 (stereo unspecified) |  | 30.4 |
| COc1ccc(-c2[nH]c3ccc(OC)cc3c2/C=C(\C#N)S(=O)(=O)c2ccccc2)cc1 | > 100 | > 100 |
| O=c1cc(NCC(O)CN2CCCC2)n(Cc2ccccc2)c(=O)n1Cc1ccccc1 (stereo unspecified) | 46 | > 100 |
